Data published in patent US5789440A, “5,6-dihydropyrone derivatives as protease inhibitors and antiviral agents” (Warner-Lambert Company, priority 1994, dated 1998).
Converted amounts (≈) assume the structure as drawn. Like-named read-outs stand apart in the source and are kept apart here.

Columns and labels:
[1] = molecular target: T1, HIV-1 Protease (Human immunodeficiency virus type 1 group M subtype B, UniProt P04585); experiment: HIV protease inhibition (undecapeptide substrate cleavage, HPLC); assay type: biochemical; settings: 37° C., 5 min, 40 μM substrate, pH 4.7, 2% DMSO, read-out: 50% INHIBITION CONCENTRATION
T1 construct: HIV-1 Protease; purchased Bachem Bioscience Inc
Experimental: 1.0 mM dithiothreitol (DTT) was prepared fresh daily in 0.1% polyethylene glycol (mw 8000) 80 mM NaOAc, 160 mM NaCl, 1.0 mM EDTA, and brought to pH 4.7 with HCl.
The enzyme is obtained from Bachem Bioscience Inc. The undiluted enzyme is thawed from -80° C. and diluted 50-fold with DTT buffer. The solution is always kept at 0° C. on ice water and used in the experiment within 20 minutes after thawing.
Substrate III from Bachem Bioscience Inc. is the undecapeptide H-His-Lys-Ala-Arg-Val-Leu-p-Nitrophenylalanine-Glu-Ala-Norleucine-Ser-NH2 (>97% purity). A 200 μM stock solution in DTT buffer is prepared and stored on ice. Substrate solution is prepared fresh daily.
10 mM inhibitor (I) in dimethyl sulfoxide (DMSO) is diluted to 200 μM with DTT buffer. From the 200 μM stock solution is made a 10 μM stock solution with 2% DMSO in DTT buffer. The two inhibitor solutions are used to make final [I] =100, 50, 20, 10, 5, 2, 1, 0.5 and 0 μM with 2% DMSO in DTT buffer in each reaction well (total inhibitor volume of 50 μl).
To each reaction well is added 20 μl of substrate (final concentration of 40 μM), 50 μl of inhibitor (at a concentration such that final dilution will produce the test concentration) and 20 μl of DTT buffer. The reaction plate (96 wells) is incubated at 37° C. for at least 5 minutes.
10 μl of the diluted protease is added to the reaction well while the reaction plate is shaking. Once shaken for 10 seconds, the plate is returned to the heating block at 37° C. (final reaction volume 100 μl.)
The reaction is incubated for 5 minutes at 37° C. The reaction is stopped by placing the reaction plate on the shaker and adding 20 μl of 10% trifluoroacetic acid (TFA) and shaking for 10 seconds. The amount of proteolysis is then determined by separation of noncleaved substrate and two cleaved products with reverse-phase HPLC, while measuring absorbance at 220 nm to determine the relative peak areas of the three components. The relative peak areas are used to calculate % conversion to product as a function of inhibitor concentration. The data are plotted as % Control (the ratio of % conversion in the presence and absence of inhibitor×100) versus inhibitor concentration and fitted with the equation Y=100/1+(X/IC50)^A, where IC50 is the inhibitor concentration at 50% inhibition and A is the slope of the inhibition curve.

[2] = system: HIV1iiib in H9 cells; experiment: Antiviral activity in H9 cells (acute HIV-1 infection, reverse transcriptase assay); assay type: cell-based; settings: read-out: Concentration for 50% Protection
Experimental: Using the general methods of Pauwels et al., (J. Virol. Methods, 16, 171-185, 1987) and Mann et al. (AIDS Research and Human Retroviruses, 253-255, 1989 (anti-viral assays of active HIV-1 infection were performed in the H9 cell line. Cultures were batch infected in 1 ml of RPM1 1640 media/10% fetal calf serum containing 10^5 infectious doses of HIV1iiib for an effective multiplicity of infection of 0.01. After 2 hours of viral absorption, cells were washed once and palted in 96-wellmicrotiter plates at a density of 10^4 cells per well. Test compounds were added to produce the desired concentration of drug and 0.1% DMSO in a final volume of 200 μl. Uninfected parallel cultures were maintained for XTT cytotoxicity assay at 7 days post infection. Cultures were tested for viral replication by reverse transcriptase assay at 4 and 7 days post infection.

[3] = system: Staphylococcus aureus UC-76; experiment: Antibacterial activity, microtitration dilution method; assay type: cell-based; settings: UC76, read-out: minimum inhibitory concentration (MIC)
Description: (§1) The compounds of the invention display antibacterial activity when tested by the microtitration dilution method as described in Heifetz, et al., Antimicr. Agents. & Chemoth. 6: 124 (1974) which is incorporated herein by reference.
(§2) By use of the above referenced method, the following minimum inhibitory concentration values (MICs in μg/mL) were obtained for representative compounds of the invention vs. clinically relevant gram positive pathogens which have become highly resistant to conventional therapy in recent years.

[4] = system: Staphylococcus aureus H228; experiment: as above; assay type: cell-based; settings: read-out: minimum inhibitory concentration (MIC)
Description: as §1, §2

[5] = system: Streptococcus pneumonia 5V-1; experiment: as above; assay type: cell-based; settings: Streptococcus pneumoniae, 5V1, read-out: minimum inhibitory concentration (MIC)
Description: as §1, §2

[6] = system: Streptococcus pyogenes C203; experiment: as above; assay type: cell-based; settings: read-out: minimum inhibitory concentration (MIC)
Description: as §1, §2

[7] = system: Enterococcus foecalis MGH2; experiment: as above; assay type: cell-based; settings: read-out: minimum inhibitory concentration (MIC)
Description: as §1, §2

[8] = system: HIV; settings: R. Nagorny et al., AIDS 7: 129-130 (1993); cited from earlier work
[9] = Human immunodeficiency virus 1, multiplicity of infection 0.01, 0.1% DMSO

Molecule: 5,6-Dihydro-4-hydroxy-3-[(3-methoxyphenyl)methyl]-6-phenyl-6-(2-phenylethyl)-2H-pyran-2-one [Example 119]
- IC50 [1]: 0.097 µM
- EC50 ([2]; multiplicity of infection 0.01, 0.1% DMSO): 59 µM

Molecule: O=C1OC(CCc2ccccc2)(c2ccccc2)CC(O)=C1SCc1ccc2c(c1)OCO2 (racemic) [Example 107, 3-(Benzo[1,3]dioxol-5-ylmethylthio)-5,6-dihydro-4-hydroxy-6-phenyl-6-(2-phenylethyl)-2H-pyran-2-one]
- MIC [3]: 100 µg/mL (≈ 217 µM)
- MIC [4]: 50 µg/mL (≈ 109 µM)
- MIC [5]: 50 µg/mL (≈ 109 µM)
- MIC [6]: 50 µg/mL (≈ 109 µM)
- MIC [7]: 50 µg/mL (≈ 109 µM)
- IC50 [1]: 0.11 µM
- EC50 [2, 9]: 8 µM

Molecule: CC(=O)CC(c1ccccc1)c1c(O)c2ccccc2oc1=O (stereo not drawn) [Warfarin, 3-(α-acetonylbenzyl)-4-hydroxycoumarin]
- inhibition of cell-free and cell-mediated HIV infection (in words) [8]: inhibiting cell-free and cell-mediated HIV infection

Molecule: CC(C)CCC1(c2ccccc2)CC(O)=C(SCc2ccccc2-c2ccccc2)C(=O)O1 (racemic) [Example 95, 3-(Biphen-2-ylmethylthio)-5,6-dihydro-4-hydroxy-6-(3-methylbutyl)-6-phenyl-2H-pyran-2-one]
- IC50 [1]: 1.09 µM
- EC50 [2, 9]: 39 µM

Molecule: Cc1ccc(C(C)C)c(SC2=C(O)CC(CCc3ccc4c(c3)OCO4)(c3ccccc3)OC2=O)c1 (stereo not shown) [Example 133]
- MIC [3]: 12.5 µg/mL (≈ 24.9 µM)
- MIC [4]: 6.25 µg/mL (≈ 12.4 µM)
- MIC [5]: 12.5 µg/mL (≈ 24.9 µM)
- MIC [6]: 25 µg/mL (≈ 49.7 µM)
- MIC [7]: 25 µg/mL (≈ 49.7 µM)

Molecule: CC(C)c1ccccc1SC1=C(O)CC(CCc2ccccc2)(c2ccccc2)OC1=O (racemic) [Example 72, 5,6-Dihydro-4-hydroxy-3-(2-isopropylphenylthio)-6-phenyl-6-(2-phenylethyl)-2H-pyran-2-one]
- MIC [3]: 25 µg/mL (≈ 56.2 µM)
- MIC [4]: 25 µg/mL (≈ 56.2 µM)
- MIC [5]: 25 µg/mL (≈ 56.2 µM)
- MIC [6]: 25 µg/mL (≈ 56.2 µM)
- MIC [7]: 100 µg/mL (≈ 225 µM)

Molecule: CC(C)CCC1(c2ccccc2)CC(O)=C(SCc2ccccc2Cl)C(=O)O1 (racemic) [Example 94, 3-(2-Chlorophenylmethylthio)-5,6-dihydro-4-hydroxy-6-(3-methylbutyl)-6-phenyl-2H-pyran-2-one]
- IC50 [1]: 0.22 µM
- EC50 [2, 9]: 29 µM

Molecule: O=C1OC(CCc2ccccc2)(c2ccccc2)CC(O)=C1Cc1ccccc1C(F)(F)F (stereo not shown) [Example 114, 5,6-Dihydro-4-hydroxy-6-phenyl-6-(2-phenylethyl)-3-[(2-trifluoromethylphenyl)methyl]-2H-pyran-2-one]
- IC50 [1]: 0.079 µM
- EC50 [2, 9]: 26 µM

Molecule: O=C(CCCC1(c2ccccc2)CC(O)=C(SCc2ccccc2)C(=O)O1)NCc1ccccc1 (racemic) [Example 61, N-Benzyl-4-(3,6-dihydro-4-hydroxy-6-oxo-2-phenyl-5-[(phenylmethyl)thio]-2H-pyran-2-yl)butyramide]
- IC50 [1]: 0.22 µM

Molecule: O=C1OC(c2ccccc2)(c2ccccc2)CC(O)=C1CCCc1ccccc1 [Example 66, 5,6-Dihydro-4-hydroxy-6,6-diphenyl-3-(3-phenylpropyl)-2H-pyran-2-one]
- IC50 [1]: 0.39 µM

Molecule: O=C1OC(CCc2ccccc2)(c2ccccc2)CC(O)=C1SCCc1ccccc1 (racemic) [Example 40, 5,6-Dihydro-4-hydroxy-6-phenyl-6-(2-phenylethyl)-3-[(2-phenylethyl)thio]-2H-pyran-2-one]
- IC50 [1]: 0.06 µM

Molecule: O=C1OC(c2ccccc2)(c2ccncc2)CC(O)=C1SCCc1ccccc1 (racemic) [Example 57, 5,6-Dihydro-4-hydroxy-6-phenyl-3-[(2-phenylethyl)thio]-6-pyridin-4-yl-2H-pyran-2-one]
- IC50 [1]: 0.65 µM

Molecule: Cc1ccc(C)c(CSC2=C(O)CC(CCc3ccccc3)(c3ccccc3)OC2=O)c1 (racemic) [Example 90, 5,6-Dihydro-4-hydroxy-3-[(2,5-dimethylphenyl)methylthio]-6-phenyl-6-(2-phenylethyl)-2H-pyran-2-one]
- IC50 [1]: 0.14 µM
